Test results reported in PMC7688903 (Frontiers in Microbiology, 2020).
“Also recorded” adds a separate entry of the source.

How the values were obtained:
[1] = plasma from healthy volunteers; conditions: human, 37°C, up to 36 h
Trypsin = test: trypsin in 0.1 M NH4HCO3 buffer (pH 8.2); conditions: 37°C, up to 24 h

Question: For HorRLFKKLLKYLRKThi, which fragment found [1] is on record?
Answer: Its fragment found is “(R) LFKKLLKYLRKThi 3–14, major, 12 h; also recorded: (Hor) RLFKKLLKYLRKThi 2–14, major, 12 h”.

Question: And the fragment found (Trypsin)?
Answer: The fragment found was “(K) KLLK (Y) 6–9, major, 18 h; also recorded: (R) LFKK (L) 3–6, major, 18 h; also recorded: (K) LLK (Y) 7–9, major, 18 h; also recorded: (K) YLR (K) 10–12, major, 18 h; also recorded: (R) LFK (K) 3–5, major, 18 h”.

Question: Which fragment found [1] does the source give for KRLFKKLLKYLRkF here?
Answer: Its fragment found is “(K) RLFK(K) 2–5, major, 12 h; also recorded: KRLFKKLLKYL (R) 1–11, major, 12 h; also recorded: (K) RLFKKLLKYLRkF 2–14, major, 12 h”.

Question: What about the fragment found (Trypsin) of the same substance?
Answer: The fragment found was “(K) KLLK (Y) 6–9, major, 18 h; also recorded: (R) LFKK (L) 3–6, major, 18 h; also recorded: (K) LLK (Y) 7–9, major, 18 h; also recorded: (K) YLR (k) 10–12, major, 18 h; also recorded: (R) LFK (K) 3–5, major, 18 h; also recorded: (K) YLRkF 10–14, major, 18 h”.

Question: With DabHorLFDabDabLLDabYLHorDabF as the substance, how does the fragment found [1] read?
Answer: The fragment found was “(Hor) LFDabDabLLDabYLHorDabF 3–14, major, 12 h; also recorded: (Dab) HorLFDabDabLLDabYLHorDabF 2–14, major, 12 h”.

Question: And the fragment found (Trypsin)?
Answer: The fragment found was “(Dab) HorLFDab (Dab) 2–5, major, 18 h; also recorded: (Dab) HorLFDabDabLLDab (Y) 2–9, major, 18 h”.

Question: Which results are given for DabHorLFDabDabLLDabYLRDabF?
Answer: fragment found [1]: (Hor) LFDabDabLLDabYLRDabF, major, 12 h; fragment found (Trypsin): (Dab) YLRDab (F) 10–13, major, 18 h; also recorded: (Dab) DabLLDabYLRDab (F) 6–13, major, 18 h; also recorded: (Hor) LFDabDabLLDabYLR (Dab) 3–12, major, 18 h; also recorded: (Dab) HorLFDabDabLLDab (Y) 2–9, major, 18 h; also recorded: DabHorLFDabDabLLDabYLR (Dab) 1–12, major, 18 h

Question: Which results are given for RRIFKRLFKYLRRF?
Answer: fragment found [1]: (R) IFKRLFKYLRRF 3–14, major, 12 h; also recorded: (R) RIFKRLFKYLRRF 2–14, major, 12 h; fragment found (Trypsin): (R) RF 13–14, major, 18 h; also recorded: (K) YLRR (F) 10–13, major, 18 h; also recorded: (R) F 14, major, 18 h; also recorded: (K) YLR (R) 10–12, major, 18 h

Question: For KRLFKKLLKYLRKF, which fragment found [1] is on record?
Answer: Its fragment found is “(R) LFKKLLKYLRKF 3–14, major, 12 h; also recorded: (K) RLFKKLLKYLRKF 2–14, major, 12 h”.

Question: What about the fragment found (Trypsin) of the same substance?
Answer: Its fragment found is “(R) LFK (K) 3–5, major, 18 h; also recorded: (K) LLK (Y) 7–9, major, 18 h; also recorded: (K) YLR (K) 10–12, major, 18 h; also recorded: (K) KLLK (Y) 6–9, major, 18 h; also recorded: (R) LFKK (L) 3–6, major, 18 h”.
